Test results: PubChem BioAssay (NCI)
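Compound exposure: 48 hours, 5 concentrations, 96-well plates. The concentration for full growth arrest is given as TGI.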

Key:
Assay in all cases: NCI tumour cell line growth inhibition, 48 h
786-0 renal = tested on: 786-0 renal
A549 NSCLC = tested on: A549 NSCLC
ACHN renal = tested on: ACHN renal
CAKI-1 renal = tested on: CAKI-1 renal
CCRF-CEM leukemia = tested on: CCRF-CEM leukemia
COLO 205 colon = tested on: COLO 205 colon
DLD-1 colon = tested on: DLD-1 colon
DMS 114 small cell lung = tested on: DMS 114 small cell lung
DMS 273 small cell lung = tested on: DMS 273 small cell lung
HCC-2998 colon = tested on: HCC-2998 colon
HCT-116 colon = tested on: HCT-116 colon
HCT-15 colon = tested on: HCT-15 colon
HL-60(TB) leukemia = tested on: HL-60(TB) leukemia
HOP-62 NSCLC = tested on: HOP-62 NSCLC
HOP-92 NSCLC = tested on: HOP-92 NSCLC
HT29 colon = tested on: HT29 colon
IGROV1 ovarian = tested on: IGROV1 ovarian
K-562 leukemia = tested on: K-562 leukemia
KM20L2 colon = tested on: KM20L2 colon
LOX IMVI melanoma = tested on: LOX IMVI melanoma
LXFL 529 NSCLC = tested on: LXFL 529 NSCLC
M14 melanoma = tested on: M14 melanoma
M19-MEL melanoma = tested on: M19-MEL melanoma
MALME-3M melanoma = tested on: MALME-3M melanoma
MOLT-4 leukemia = tested on: MOLT-4 leukemia
NCI-H226 lung = tested on: NCI-H226 lung
NCI-H23 lung = tested on: NCI-H23 lung
NCI-H460 lung = tested on: NCI-H460 lung
NCI-H522 lung = tested on: NCI-H522 lung
OVCAR-3 ovarian = tested on: OVCAR-3 ovarian
OVCAR-4 ovarian = tested on: OVCAR-4 ovarian
OVCAR-5 ovarian = tested on: OVCAR-5 ovarian
OVCAR-8 ovarian = tested on: OVCAR-8 ovarian
RPMI-8226 leukemia = tested on: RPMI-8226 leukemia
RXF 393 renal = tested on: RXF 393 renal
RXF-631 renal = tested on: RXF-631 renal
SF-268 CNS = tested on: SF-268 CNS
SF-295 CNS = tested on: SF-295 CNS
SF-539 CNS = tested on: SF-539 CNS
SK-MEL-28 melanoma = tested on: SK-MEL-28 melanoma
SK-MEL-5 melanoma = tested on: SK-MEL-5 melanoma
SK-OV-3 ovarian = tested on: SK-OV-3 ovarian
SN12C renal = tested on: SN12C renal
SNB-19 CNS = tested on: SNB-19 CNS
SNB-75 CNS = tested on: SNB-75 CNS
SNB-78 CNS = tested on: SNB-78 CNS
SR leukemia = tested on: SR leukemia
SW-620 colon = tested on: SW-620 colon
TK-10 renal = tested on: TK-10 renal
U251 CNS = tested on: U251 CNS
UACC-257 melanoma = tested on: UACC-257 melanoma
UACC-62 melanoma = tested on: UACC-62 melanoma
UO-31 renal = tested on: UO-31 renal
XF 498 CNS = tested on: XF 498 CNS
A498 renal = tested on: A498 renal
EKVX NSCLC = tested on: EKVX NSCLC
HOP-18 NSCLC = tested on: HOP-18 NSCLC
KM12 colon = tested on: KM12 colon
SK-MEL-2 melanoma = tested on: SK-MEL-2 melanoma

NC(=O)N/N=C(/c1nc2ccc([N+](=O)[O-])cc2[nH]c1=O)C(O)c1ccco1 (configuration not stated)
TGI (786-0 renal): > 100 µM | TGI (A549 NSCLC): > 100 µM | TGI (ACHN renal): > 100 µM | TGI (CAKI-1 renal): > 100 µM | TGI (CCRF-CEM leukemia): > 100 µM | TGI (COLO 205 colon): > 100 µM | TGI (DLD-1 colon): > 100 µM | TGI (DMS 114 small cell lung): > 100 µM | TGI (DMS 273 small cell lung): > 100 µM | TGI (HCC-2998 colon): 85.3 µM | TGI (HCT-116 colon): > 100 µM | TGI (HCT-15 colon): 61 µM | TGI (HL-60(TB) leukemia): > 100 µM | TGI (HOP-62 NSCLC): 94.6 µM | TGI (HOP-92 NSCLC): > 100 µM | TGI (HT29 colon): > 100 µM | TGI (IGROV1 ovarian): > 100 µM | TGI (K-562 leukemia): > 100 µM | TGI (KM20L2 colon): 66.4 µM | TGI (LOX IMVI melanoma): > 100 µM | TGI (LXFL 529 NSCLC): > 100 µM | TGI (M14 melanoma): > 100 µM | TGI (M19-MEL melanoma): > 100 µM | TGI (MALME-3M melanoma): > 100 µM | TGI (MOLT-4 leukemia): > 100 µM | TGI (NCI-H226 lung): > 100 µM | TGI (NCI-H23 lung): > 100 µM | TGI (NCI-H460 lung): > 100 µM | TGI (NCI-H522 lung): > 100 µM | TGI (OVCAR-3 ovarian): > 100 µM | TGI (OVCAR-4 ovarian): > 100 µM | TGI (OVCAR-5 ovarian): > 100 µM | TGI (OVCAR-8 ovarian): > 100 µM | TGI (RPMI-8226 leukemia): > 100 µM | TGI (RXF 393 renal): > 100 µM | TGI (RXF-631 renal): > 100 µM | TGI (SF-268 CNS): > 100 µM | TGI (SF-295 CNS): > 100 µM | TGI (SF-539 CNS): 30.9 µM | TGI (SK-MEL-28 melanoma): > 100 µM | TGI (SK-MEL-5 melanoma): > 100 µM | TGI (SK-OV-3 ovarian): > 100 µM | TGI (SN12C renal): 33.5 µM | TGI (SNB-19 CNS): > 100 µM | TGI (SNB-75 CNS): > 100 µM | TGI (SNB-78 CNS): > 100 µM | TGI (SR leukemia): > 100 µM | TGI (SW-620 colon): > 100 µM | TGI (TK-10 renal): > 100 µM | TGI (U251 CNS): > 100 µM | TGI (UACC-257 melanoma): > 100 µM | TGI (UACC-62 melanoma): > 100 µM | TGI (UO-31 renal): > 100 µM | TGI (XF 498 CNS): > 100 µM

Cc1ccc(NC(=O)CCC(=O)C(C#N)c2ccccc2)cc1C (configuration not stated)
TGI (786-0 renal): > 100 µM | TGI (A498 renal): > 100 µM | TGI (A549 NSCLC): > 100 µM | TGI (ACHN renal): > 100 µM | TGI (CAKI-1 renal): > 100 µM | TGI (CCRF-CEM leukemia): > 100 µM | TGI (COLO 205 colon): > 100 µM | TGI (DLD-1 colon): > 100 µM | TGI (DMS 114 small cell lung): > 100 µM | TGI (DMS 273 small cell lung): > 100 µM | TGI (EKVX NSCLC): > 100 µM | TGI (HCC-2998 colon): > 100 µM | TGI (HCT-116 colon): > 100 µM | TGI (HCT-15 colon): > 100 µM | TGI (HL-60(TB) leukemia): > 100 µM | TGI (HOP-18 NSCLC): > 100 µM | TGI (HOP-92 NSCLC): > 100 µM | TGI (HT29 colon): > 100 µM | TGI (IGROV1 ovarian): > 100 µM | TGI (K-562 leukemia): > 100 µM | TGI (KM12 colon): > 100 µM | TGI (KM20L2 colon): > 100 µM | TGI (LOX IMVI melanoma): > 100 µM | TGI (LXFL 529 NSCLC): > 100 µM | TGI (M14 melanoma): > 100 µM | TGI (MALME-3M melanoma): > 100 µM | TGI (MOLT-4 leukemia): > 100 µM | TGI (NCI-H226 lung): > 100 µM | TGI (NCI-H23 lung): > 100 µM | TGI (NCI-H460 lung): > 100 µM | TGI (NCI-H522 lung): > 100 µM | TGI (OVCAR-3 ovarian): > 100 µM | TGI (OVCAR-4 ovarian): > 100 µM | TGI (OVCAR-5 ovarian): > 100 µM | TGI (OVCAR-8 ovarian): > 100 µM | TGI (RPMI-8226 leukemia): > 100 µM | TGI (RXF-631 renal): > 100 µM | TGI (SF-268 CNS): > 100 µM | TGI (SF-295 CNS): > 100 µM | TGI (SF-539 CNS): > 100 µM | TGI (SK-MEL-2 melanoma): > 100 µM | TGI (SK-MEL-5 melanoma): > 100 µM | TGI (SK-OV-3 ovarian): > 100 µM | TGI (SN12C renal): > 100 µM | TGI (SNB-19 CNS): > 100 µM | TGI (SNB-78 CNS): > 100 µM | TGI (SW-620 colon): > 100 µM | TGI (TK-10 renal): > 100 µM | TGI (U251 CNS): > 100 µM | TGI (UACC-257 melanoma): > 100 µM | TGI (UACC-62 melanoma): > 100 µM | TGI (UO-31 renal): > 100 µM | TGI (XF 498 CNS): > 100 µM
